Consider three compounds from paper PMC12655659, “Population Pharmacokinetics of Radotinib in Healthy Volunteers and Patients with Chronic Myeloid Leukemia” (Pharmaceuticals, 2025).

Read-outs that look alike come from different tables or passages of the source.

Series [1] relates to patients newly diagnosed with Ph+ CML-CP. The arrangement: method as in PMID 28939746. To be noted: by 12 months, cited from earlier work.
For series [2] the following is noted: cited from earlier work.
Series [3] can be described thus: Population pharmacokinetic model (nonlinear mixed-effects modeling) of radotinib plasma concentrations in healthy volunteers and patients with CML-CP. It is filed as in vivo, human. To be noted: for half-life: human, plasma, oral, read-out: terminal half-life (t1/2), population estimate (converted). As for the experimental part: Two clinical PK studies of radotinib were performed in healthy volunteers and patients with CML-CP. The two studies were approved by the institutional review board (IRB) of Severance Hospital and Peking University People’s Hospital (IRB numbers 4-2024-0489 and 2018PHA053, respectively) and were conducted in accordance with the Declaration of Helsinki and the International Council for Harmonization Good Clinical Practice (ICH-GCP) guidelines. All participants provided written informed consent prior to any study-related procedures. The studies were registered at ClinicalTrials.gov (identifiers: NCT06461078 and NCT03722420). The present population PK study was performed using pooled data from two clinical studies.
The first study (NCT06461078) included healthy male adult volunteers aged 19 to 55 years, weighing 55 kg or heavier, with a body mass index (BMI) between 18.5 kg/m^2 and 27.0 kg/m^2. Individuals with a history of clinically significant psychiatric or comorbid conditions such as severe hepatic impairment, severe renal impartment, long QT syndrome; a history of gastrointestinal disorders or surgeries that may have affected the absorption of radotinib; or suspected symptoms of acute illness at the time of screening were excluded. Also excluded were individuals with concomitant medications or foods that may have interfered with the study outcomes as well as those with excessive consumption of caffeine, alcohol or tobacco. Individuals were also ineligible if they had participated in other clinical trials within 180 days, donated whole blood within 60 days or blood components within 30 days or received a blood transfusion within 30 days prior to the administration of radotinib. Study participants received a single oral dose of 400 mg radotinib under fasting conditions. Serial blood samples were collected from forearm veins of participants pre-dose and at 0.5, 1, 2, 3, 4, 5, 6, 8, 10, 12, 18, 24, 32 and 48 h post-dose.
The second study (NCT03722420) included patients aged 18 years or older with a confirmed diagnosis of Ph+ CML-CP within last 6 months, typical BCR-ABL1 transcript type and normal organ function. Patients with a T315I mutation in the BCR-ABL1 gene; a history of radiotherapy, interferon or other targeted anti-leukemic therapies; or clinically significant comorbidities were excluded. Patients were also ineligible if they had participated in other investigational studies within the past 3 months or were taking therapeutic coumarin derivatives; a moderate or strong CYP3A4 inhibitor or inducer; or medications that may have prolonged the QT interval. Study participants were orally administered 300 mg radotinib twice daily under fasting conditions. Serial blood samples were obtained from forearm veins pre-dose and at 1, 2, 3, 4, 6, 8 and 12 h post-dose on Days 1 and 14.
All samples were centrifuged to separate plasma and stored at −70 °C until the measurement of plasma concentrations (Cp) of radotinib. The Cp of radotinib in HVs was measured using high-performance liquid chromatography coupled with tandem mass spectrometric detection (HPLC-MS/MS; Prominence HPLC/UFLC/UFLCXR, Shimadzu, Kyoto, Japan; QTRAP 6500+, SCIEX, Marlborough, MA, USA). An internal standard was radotinib-d6 dissolved in acetonitrile to produce working solutions. The linearity of the bioanalytical method was assessed using a calibration curve computed by a weighted (1/x^2) linear regression from seven standard concentrations (5, 10, 30, 100, 300, 1000 and 2000 ng/mL). The method was validated using concentrations of 5, 15, 160 and 1600 ng/mL for the lower limit of quantitation (LLOQ) and low- (LQC), medium- (MQC) and high-quality controls (HQC), respectively.
In patients with CML-CP, the Cp of radotinib was quantified using another HPLC–MS/MS system (LC-20ADXR pump, CTO-20AC column oven, CBM-20A Lite controller and DGU-20A5R degasser, Shimadzu, Kyoto, Japan; API 4000, SCIEX, MA, USA). Glipizide in acetonitrile was used as an internal standard. […]

A short description of series [4]: Preliminary pharmacokinetic assessment in patients with CML-CP. The conditions noted are these: human, plasma, oral, 300 mg twice daily, obtained by doubling the preliminary value of AUC0–12h, read-out: AUC0–24h, previously estimated. The class given is in vivo.
The subject of the next series is patients with CML-CP. The arrangement: method as in PMID 24705186. The conditions noted are these: 400 mg twice daily; 77 patients; at 12 months; cited from earlier work.
Details of series [5]: method as in ref 23 = [23]; 23. Lee Y. Kang M. Kim J. Han J. Kim N.Y. Shin J.S. Park M.S. Kim C.O. Jin B.H. Choi M.K. Clinical pharmacokinetic characteristics and the effect of food on radotinib in healthy volunteers Proceedings. To be noted: healthy volunteers; cited from earlier work.
Details of series [6]: method as in ref 24 = [24]; 24. Kim J. Kang M. Lee Y. Yoo S. Han J. Cho D.J. Lee G.Y. Kim N.Y. Jiang Q. Lee J. Pharmacokinetic characteristics of radotinib assessed in Asian patients with chronic myeloid leukemia Proceedings of. To be noted: patients with CML-CP, cited from earlier work.

Turning to `Cc1ccc(NC(=O)c2ccc(CN3CCN(C)CC3)cc2)cc1Nc1nccc(-c2cccnc2)n1` [imatinib], the “patients achieving major molecular response (MMR)” value in series [1] (once-daily 400 mg, 20 of 66 patients) is 30%.

`Cc1cn(-c2cc(NC(=O)c3ccc(C)c(Nc4nccc(-c5cccnc5)n4)c3)cc(C(F)(F)F)c2)cn1` [nilotinib]: the “target Ctrough in terms of favorable molecular responses” value in series [2] (400 mg once daily) is reported as 500 ng/mL. The t1/2 in series [2] is on record as 16 h.

`Cc1cn(-c2cc(NC(=O)c3ccc(C)c(Nc4nccc(-c5cnccn5)n4)c3)cc(C(F)(F)F)c2)cn1` [radotinib]: in series [3] (bootstrap of 1000 replicates), the “CL/F, bootstrap estimate median (95% CI)” value is recorded as 23.2 (20.0–26.5) L/h; the “MTT, bootstrap estimate median (95% CI)” value was 1.86 (1.43–2.27) h; the “N, bootstrap estimate median (95% CI)” value is on record as 6.34 (4.46–10.6); the “Q/F, bootstrap estimate median (95% CI)” value is listed as 126 (88.9–185) L/h. Besides, in series [3] (bootstrap of 1000 replicates), the “Vc/F age effect, bootstrap estimate median (95% CI)” value was −0.0127 (−0.0258–−0.003); the “Vc/F, bootstrap estimate median (95% CI)” value was 395 (281–526) L; the “Vp/F, bootstrap estimate median (95% CI)” value is 529 (398–733) L; the “ka, bootstrap estimate median (95% CI)” value is 1.56 (1.07–3.14) h^−1. Also, in series [3] (bootstrap of 1000 replicates), the “σproportional, bootstrap estimate” value is listed as 20.0%; the “ωCL/F, bootstrap estimate median (95% CI)” value is given as 0.379 (0.301–0.459); the “ωIOV, bootstrap estimate median (95% CI)” value is recorded as 0.669 (0.494–0.829). Moreover, in series [3] (final population PK model), the “CL/F slower in CML-CP patients compared with HVs” value worked out at 39.2%; the “MTT (mean transit time), population estimate” value is 1.88 h; the “N (number of transit compartments), population estimate” value was 6.58; the “estimated slope of negative linear effect of age on Vc/F” value was −0.0129 per year. For the same compound, in series [3] (final population PK model), the “ka (first-order absorption rate constant), population estimate” value is 1.59 h⁻¹; the “negative linear relationship of age with Vc/F” value is listed as −0.0129 L per year; the “total V/F (summation of Vc/F and Vp/F)” value was 902 L; the “σproportional (proportional residual error), population estimate” value was 20.0%. Further, the “ωCL/F (interindividual variability of apparent clearance), population estimate” value in series [3] (final population PK model) is on record as 0.389. Moreover, in series [3] (final population PK model, HVs), the “CL/F, population estimate in healthy volunteers” value is on record as 37.9 L/h. Besides, the “Vc/F age effect (slope), population estimate” value in series [3] (final population PK model, linear, age − 31) is on record as −0.0129. In addition, the “ωIOV (interoccasion variability), population estimate” value in series [3] (final population PK model, on Vc/F and Vp/F) is 0.698. The “CL/F (apparent clearance), population estimate” value in series [3] (final population PK model, typical patient with CML-CP) is listed as 23.0 L/h. For the same compound, the “terminal half-life (t1/2), population estimate” value in series [3] (healthy volunteers) is 18.2 h. Further, the half-life in series [3] (300 mg, patients with CML-CP) was 28.8 h. Further, in series [3] (male, 400 mg, healthy volunteers), the half-life is 17.5 h. In addition, the AUC(0-t) in series [4] was 24000 ng·h/mL. For the same compound, in the series on patients with CML-CP, the “patients achieving major cytogenetic response (MCyR)” value is given as 65% and the “patients attaining complete cytogenetic response (CCyR)” value is 47%. Also, in series [1] (300 mg twice daily, 37 of 69 patients), the “patients achieving major molecular response (MMR)” value is 54%. Also, in series [5], the “V/F, preliminary value based on NCA” value is recorded as 1315 L and the “t1/2, preliminary value” is recorded as 17.5 h. In series [6] (300 mg twice daily), the “Cmax, preliminarily assessed value” is 1595 (1143–2393) ng/mL and the “tmax, preliminarily assessed value” is given as 2.5 (2.0–3.8) h. The “t1/2, preliminary value” in series [6] is on record as 25.4 h.
